Laboratory results from ChEMBL document CHEMBL1201862, “PubChem BioAssay data set” (2004).
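Step 1: Grow cells in 96-well plates. Step 2: Expose to compound for 48 hours at 5 concentrations. Step 3: Interpolate endpoints linearly; if unreached, use highest concentration. Abbreviation: GI50, concentration required for 50% inhibition of growth.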 Calls of active or inactive are those of the source. Cut-off read from the data, not from the text of the source: active = GI50 up to about 1.1 µM and inactive = higher.

Experiments:
Assay in all cases: NCI tumour cell line growth inhibition, 48 h
A498 = tested on: A498
A549 = tested on: A549
ACHN = tested on: ACHN
DU-145 = tested on: DU-145
HOP-62 = tested on: HOP-62
LOX IMVI = tested on: LOX IMVI
MDA-MB-435 = tested on: MDA-MB-435
MOLT-4 = tested on: MOLT-4
NCI-H460 = tested on: NCI-H460
NCI/ADR-RES = tested on: NCI/ADR-RES
OVCAR-8 = tested on: OVCAR-8
PC-3 = tested on: PC-3
SF-268 = tested on: SF-268
SK-MEL-28 = tested on: SK-MEL-28
SK-OV-3 = tested on: SK-OV-3
SNB-75 = tested on: SNB-75
TK-10 = tested on: TK-10
UACC-257 = tested on: UACC-257
COLO 205 = tested on: COLO 205
M14 = tested on: M14

Measured: GI50

Nc1nc(Cl)c(N)c(NCC2(CO)CCCC2)n1
inactive: A498 44.7 µM | A549 > 100 µM | ACHN > 100 µM | DU-145 > 100 µM | HOP-62 88.5 µM | LOX IMVI 97.9 µM | MDA-MB-435 80 µM | MOLT-4 74.8 µM | NCI-H460 > 100 µM | NCI/ADR-RES > 100 µM | OVCAR-8 > 100 µM | PC-3 > 100 µM | SF-268 > 100 µM | SK-MEL-28 > 100 µM | SK-OV-3 10.4 µM | SNB-75 > 100 µM | TK-10 > 100 µM | UACC-257 71.6 µM

C=CCn1c(=O)ccn(/C(=C/C(=O)OCC)C(=O)OCC)c1=O
inactive: A498 17.9 µM | A549 17.5 µM | ACHN 3.72 µM | COLO 205 1.74 µM | DU-145 21.7 µM | HOP-62 20.9 µM | LOX IMVI 6.7 µM | M14 13.5 µM | MDA-MB-435 12.8 µM | MOLT-4 2.99 µM | NCI-H460 16.1 µM | NCI/ADR-RES 21.3 µM | OVCAR-8 15.6 µM | PC-3 14.6 µM | SF-268 19.7 µM | SK-MEL-28 15.2 µM | SK-OV-3 25.7 µM | SNB-75 16.1 µM | TK-10 11.9 µM | UACC-257 15.2 µM

N#CC(c1ccc(O)cc1)N1CCN(C(C#N)c2ccc(O)cc2)CC1 (configuration not stated)
inactive: A498 > 100 µM | A549 99.3 µM | ACHN > 100 µM | COLO 205 > 100 µM | DU-145 > 51.8 µM | HOP-62 20.2 µM | LOX IMVI > 100 µM | M14 > 100 µM | MDA-MB-435 > 100 µM | MOLT-4 > 100 µM | NCI/ADR-RES 40.8 µM | OVCAR-8 24.3 µM | PC-3 > 100 µM | SF-268 24.5 µM | SK-MEL-28 67.3 µM | SK-OV-3 28.6 µM | SNB-75 19 µM | TK-10 > 100 µM | UACC-257 > 100 µM

CCc1cc(Cc2cc(CC)c(NC(=O)C(=O)CC(=O)c3sc(-c4cccnc4)nc3C)c(CC)c2)cc(CC)c1NC(=O)C(=O)CC(=O)c1sc(-c2cccnc2)nc1C
inactive: A498 > 100 µM | A549 > 100 µM | ACHN > 100 µM | COLO 205 > 100 µM | DU-145 > 100 µM | LOX IMVI > 100 µM | M14 > 100 µM | MDA-MB-435 > 100 µM | MOLT-4 > 100 µM | NCI-H460 > 100 µM | NCI/ADR-RES > 100 µM | OVCAR-8 > 100 µM | PC-3 > 100 µM | SF-268 > 100 µM | SK-MEL-28 > 100 µM | SK-OV-3 > 100 µM | SNB-75 > 100 µM | UACC-257 > 100 µM

O=C(CC(O)(C(F)(F)F)C(F)(F)F)C(c1ccccc1)C(O)(C(F)(F)F)C(F)(F)F (configuration not stated)
inactive: A498 13.9 µM | A549 22.2 µM | ACHN 17.4 µM | COLO 205 11.4 µM | DU-145 26.1 µM | LOX IMVI 55.7 µM | M14 41.2 µM | MDA-MB-435 47.3 µM | MOLT-4 62.8 µM | NCI-H460 6.08 µM | NCI/ADR-RES 8.87 µM | OVCAR-8 14.8 µM | PC-3 4.15 µM | SK-MEL-28 25.4 µM | SK-OV-3 5.92 µM | SNB-75 1.93 µM | TK-10 26.3 µM | UACC-257 31.8 µM

COc1ccc(-n2nnc(C(N)=O)c2O)cc1
inactive: A498 > 100 µM | A549 > 100 µM | ACHN > 100 µM | COLO 205 > 100 µM | DU-145 > 100 µM | HOP-62 > 100 µM | LOX IMVI > 100 µM | M14 > 100 µM | MDA-MB-435 > 100 µM | MOLT-4 > 100 µM | NCI-H460 > 100 µM | NCI/ADR-RES > 100 µM | OVCAR-8 > 100 µM | PC-3 > 100 µM | SF-268 > 100 µM | SK-MEL-28 > 100 µM | SK-OV-3 > 100 µM | SNB-75 > 100 µM | UACC-257 > 100 µM

c1ncn(C23C4C5C6C4C2C6C53)n1 (configuration not stated)
inactive: A498 > 100 µM | A549 > 100 µM | ACHN > 100 µM | COLO 205 > 100 µM | DU-145 > 100 µM | HOP-62 > 100 µM | LOX IMVI > 100 µM | MDA-MB-435 > 100 µM | MOLT-4 > 100 µM | NCI-H460 > 100 µM | NCI/ADR-RES > 100 µM | OVCAR-8 > 100 µM | PC-3 > 100 µM | SF-268 > 100 µM | SK-MEL-28 > 100 µM | SK-OV-3 > 100 µM | SNB-75 > 100 µM | TK-10 > 100 µM | UACC-257 > 100 µM

O=S(=O)(O)c1ccc2c(/N=N/c3ccccc3Cl)c(O)ccc2c1
inactive: A498 > 100 µM | A549 > 100 µM | ACHN > 100 µM | COLO 205 > 100 µM | DU-145 > 100 µM | HOP-62 > 100 µM | LOX IMVI > 100 µM | M14 > 100 µM | MDA-MB-435 > 100 µM | MOLT-4 > 100 µM | NCI/ADR-RES > 100 µM | OVCAR-8 > 100 µM | PC-3 > 100 µM | SF-268 > 100 µM | SK-MEL-28 > 100 µM | SK-OV-3 > 100 µM | SNB-75 > 100 µM | TK-10 > 100 µM | UACC-257 > 100 µM

CC(=O)NC1C(OCc2ccccc2)OC(CO)C(O)C1OC(C)C(=O)NC(C(=O)N[C@@H](CCC(=O)NCCNCCNc1c2ccccc2nc2cccc([N+](=O)[O-])c12)C(N)=O)C(C)C (some centres not stated)
inactive: A498 41.8 µM | A549 14.8 µM | ACHN 16.4 µM | COLO 205 20.1 µM | DU-145 33 µM | HOP-62 30.1 µM | LOX IMVI 29.2 µM | M14 15.4 µM | MDA-MB-435 14.1 µM | MOLT-4 23.6 µM | NCI-H460 14.7 µM | NCI/ADR-RES 91.6 µM | OVCAR-8 19.6 µM | PC-3 28.4 µM | SF-268 36.1 µM | SK-MEL-28 41.4 µM | SK-OV-3 > 100 µM | SNB-75 77.4 µM | TK-10 37.8 µM

O=[N+]([O-])c1ccc(/N=N/N2CCCC2)cc1
inactive: A498 > 100 µM | ACHN > 100 µM | COLO 205 > 100 µM | DU-145 > 100 µM | HOP-62 > 100 µM | LOX IMVI > 100 µM | M14 > 100 µM | MDA-MB-435 > 100 µM | MOLT-4 > 100 µM | NCI-H460 > 100 µM | NCI/ADR-RES > 100 µM | OVCAR-8 > 100 µM | PC-3 > 100 µM | SF-268 > 100 µM | SK-OV-3 > 100 µM | SNB-75 > 100 µM | TK-10 > 100 µM | UACC-257 > 100 µM
